Values belong to the molecule of their own block, whether it stands above or below them. Calls of active or inactive are those of the source. No cut-off for these calls is given here.
Columns and labels:
SiHa = experiment: cells; conditions: Homo sapiens, 48 h
Description: Antiproliferative activity against human SiHa cells assessed as reduction in cell viability incubated for 48 hrs by sulphorhodamine B assay

Calf thymus DNA [1] = experiment: Binding affinity to calf thymus DNA assessed as hyperchromic shift measured at 432 nm at 3*10^-5 mol/L by double beam UV-Vis spectroscopic analysis; format: nucleic-acid assay; conditions: Bos taurus
physchem [2] = conditions: octanol/water
Description: Octanol/water partition coefficient, log P of the compound

HCT-116 [3] = experiment: Induction of DNA damage in human HCT-116 cells assessed as tail length at 0.5 uM incubated for 48 hrs by alkaline Comet assay relative to control; format: functional, cell-based
NCI-H460 [4] = experiment: Induction of apoptosis in human NCI-H460 cells assessed as increase in cleaved PARP protein levels at 3 uM incubated for 48 hrs by Western blot analysis; format: functional, cell-based
HCT-116 [5] = experiment: Induction of cell cycle arrest in human HCT-116 cells assessed as accumulation of cells at sub-G1 phase at 2 uM incubated for 48 hrs by propidium iodide staining based flow cytometry analysis; format: functional
NCI-H460 [6] = experiment: cells; conditions: Homo sapiens, NCI-H460, 48 h
Description: Antiproliferative activity against human NCI-H460 cells assessed as reduction in cell viability incubated for 48 hrs by sulphorhodamine B assay

physchem [7] = conditions: octanol/buffer, pH 7.4
Description: Octanol/buffer distribution coefficient, log D of the compound at pH 7.4

[8] = target: T1, DNA topoisomerase 2-alpha (Homo sapiens, UniProt P11388); experiment: Inhibition of recombinant human topoisomerase 2 assessed as decrease in relaxation of supercoiled pBlue-Script KS(+) plasmid DNA at 200 uM incubated for 30 mins by ethidium bromide staining based gel electrophoresis method
NCI-H460 [9] = experiment: Induction of apoptosis in human NCI-H460 cells assessed as nuclear fragmentation at 2 uM incubated for 48 hrs by acridine orange/propidium iodide double staining based fluorescence microscopy analysis; format: functional, cell-based
MCF7 = experiment: cells; conditions: Homo sapiens, MCF7, 48 h
Description: Antiproliferative activity against human MCF7 cells assessed as reduction in cell viability incubated for 48 hrs by sulphorhodamine B assay

HeLa [10] = experiment: Induction of apoptosis in human HeLa cells assessed as increase in cleaved PARP levels at 1 uM by Western blot analysis; format: functional, cell-based; conditions: time 6-24 hrs, TDE = time-dependent effect
MDA-MB-231 = experiment: cells; conditions: Homo sapiens, MDA-MB-231, 48 h
Description: Antiproliferative activity against human MDA-MB-231 cells assessed as reduction in cell viability incubated for 48 hrs by sulphorhodamine B assay

Calf thymus DNA [11] = experiment: Binding affinity to calf thymus DNA assessed as hypsochromic shift absorbance measured at 284 nm at 3*10^-5 mol/L by double beam UV-Vis spectroscopic analysis; format: nucleic-acid assay; conditions: Bos taurus
U-251 = experiment: cells; conditions: Homo sapiens, U-251, 48 h
Description: Antiproliferative activity against human U-251 cells assessed as reduction in cell viability incubated for 48 hrs by sulphorhodamine B assay

Calf thymus DNA [12] = experiment: Binding affinity to calf thymus DNA assessed as hyperchromic shift measured at 362 nm at 3*10^-5 mol/L by double beam UV-Vis spectroscopic analysis; format: nucleic-acid assay; conditions: Bos taurus
HeLa [13] = experiment: cells; conditions: Homo sapiens, 48 h
Description: Antiproliferative activity against human HeLa cells assessed as reduction in cell viability incubated for 48 hrs by sulphorhodamine B assay

HCT-116 [14] = experiment: Induction of apoptosis in human HCT-116 cells assessed as chromatin condensation at 2 uM incubated for 48 hrs by acridine orange/propidium iodide double staining based fluorescence microscopy analysis; format: functional, cell-based
HCT-116 [15] = experiment: cells; conditions: Homo sapiens, HCT-116, 48 h
Description: Antiproliferative activity against human HCT-116 cells assessed as reduction in cell viability incubated for 48 hrs by sulphorhodamine B assay

Jurkat = experiment: cells; conditions: Homo sapiens, 48 h
Description: Antiproliferative activity against human Jurkat cells assessed as reduction in cell viability incubated for 48 hrs by sulphorhodamine B assay

Calf thymus DNA [16] = experiment: Binding affinity to calf thymus DNA assessed as hypochromic effect at 3*10^-5 mol/L by double beam UV-Vis spectroscopic analysis; format: nucleic-acid assay; conditions: Bos taurus
HCT-116 [17] = experiment: Induction of cell cycle arrest in human HCT-116 cells assessed as accumulation of cells at G1/S phase at 2 uM incubated for 48 hrs by propidium iodide staining based flow cytometry analysis; format: functional
NCI-H460 [18] = experiment: Induction of apoptosis in human NCI-H460 cells assessed as chromatin condensation at 2 uM incubated for 48 hrs by acridine orange/propidium iodide double staining based fluorescence microscopy analysis; format: functional, cell-based
HCT-116 [19] = experiment: cells; conditions: Homo sapiens, HCT-116, 48 h; remark: listed apart in the source
Description: Antiproliferative activity against human HCT-116 p53-/- cells assessed as reduction in cell viability incubated for 48 hrs by sulphorhodamine B assay

HCT-116 [20] = experiment: Induction of apoptosis in human HCT-116 cells assessed as nuclear fragmentation at 2 uM incubated for 48 hrs by acridine orange/propidium iodide double staining based fluorescence microscopy analysis; format: functional, cell-based
[21] = target: T1, DNA topoisomerase 2-alpha; experiment: Inhibition of recombinant human topoisomerase 2 assessed as decrease in relaxation of supercoiled pBlue-Script KS(+) plasmid DNA at < 100 uM incubated for 30 mins by ethidium bromide staining based gel electrophoresis method; conditions: dose microM <100, time 30.0 min
HCT-116 [22] = experiment: Induction of apoptosis in human HCT-116 cells assessed as reduction in PARP protein levels at 3 uM incubated for 48 hrs by Western blot analysis; format: functional, cell-based
[23] = target: T1, DNA topoisomerase 2-alpha; experiment: Inhibition of human topoisomerase 2 assessed as inhibition of etoposide-induced DNA cleavage complex formation by measuring linear DNA formation at 30 to 50 uM incubated for 30 mins using pRYG DNA as substrate by agarose gel electrophoresis analysis; conditions: dose 30-50 µM
[24] = target: T1, DNA topoisomerase 2-alpha; experiment: Inhibition of recombinant human topoisomerase 2 assessed as decrease in relaxation of supercoiled pBlue-Script KS(+) plasmid DNA at 40 uM incubated for 30 mins by ethidium bromide staining based gel electrophoresis method relative to control
Calf thymus DNA [25] = experiment: Binding affinity to calf thymus DNA assessed as hyperchromic effect measured at 299 nm at 3*10^-5 mol/L by double beam UV-Vis spectroscopic analysis; format: nucleic-acid assay; conditions: Bos taurus
HCT-116 [26] = experiment: Anticlonogenic activity against human HCT-116 cells assessed as inhibition of colony formation at 5 uM incubated for 48 hrs followed by compound washout with PBS and measured after 14 days by crystal violet staining based analysis; format: functional, cell-based
A549 = experiment: Antiproliferative activity against human A549 cells assessed as reduction in cell viability incubated for 48 hrs by sulphorhodamine B assay; format: functional
[27] = target: T2, DNA topoisomerase 1 (Homo sapiens) (UniProt P11387); experiment: Inhibition of human topoisomerase 1 assessed as induction of negative supercoiled DNA using relaxed pBlue-Script KS(+) plasmid DNA as substrate measured after 15 mins by agarose gel electrophoresis analysis; conditions: dose 60-100 µM
T2 sequence (whole entry): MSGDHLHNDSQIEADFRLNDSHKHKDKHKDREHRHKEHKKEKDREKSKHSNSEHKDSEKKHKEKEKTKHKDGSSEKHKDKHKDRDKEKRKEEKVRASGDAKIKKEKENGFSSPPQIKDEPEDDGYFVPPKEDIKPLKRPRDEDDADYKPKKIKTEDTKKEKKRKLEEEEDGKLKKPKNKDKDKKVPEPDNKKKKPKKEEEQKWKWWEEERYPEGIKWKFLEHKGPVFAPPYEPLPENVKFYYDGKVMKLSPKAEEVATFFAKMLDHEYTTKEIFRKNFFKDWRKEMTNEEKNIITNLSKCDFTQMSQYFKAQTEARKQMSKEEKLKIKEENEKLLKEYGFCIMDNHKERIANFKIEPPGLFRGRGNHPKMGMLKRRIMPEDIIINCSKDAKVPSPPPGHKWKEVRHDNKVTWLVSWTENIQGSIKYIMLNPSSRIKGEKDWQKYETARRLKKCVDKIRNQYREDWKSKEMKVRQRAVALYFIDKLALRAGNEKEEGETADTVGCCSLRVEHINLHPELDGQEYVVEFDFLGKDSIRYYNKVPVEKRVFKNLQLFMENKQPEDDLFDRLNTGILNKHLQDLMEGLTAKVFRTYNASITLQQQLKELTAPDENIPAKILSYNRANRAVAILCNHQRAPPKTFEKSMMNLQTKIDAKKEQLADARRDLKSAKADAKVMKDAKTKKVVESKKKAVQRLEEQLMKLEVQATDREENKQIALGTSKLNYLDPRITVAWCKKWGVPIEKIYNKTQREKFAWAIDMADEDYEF

NCI-H460 [28] = experiment: Induction of DNA damage in human NCI-H460 cells at 5 uM incubated for 48 hrs by alkaline Comet assay relative to control; format: functional, cell-based
HCT-116 [29] = experiment: Induction of DNA damage in human HCT-116 cells assessed as tail length at 5 uM incubated for 48 hrs by alkaline Comet assay relative to control; format: functional, cell-based
[30] = target: T1, DNA topoisomerase 2-alpha; experiment: Inhibition of recombinant human topoisomerase 2 assessed as decrease in relaxation of supercoiled pBlue-Script KS(+) plasmid DNA incubated for 30 mins by ethidium bromide staining based gel electrophoresis method
HEK293 = experiment: Antiproliferative activity against human HEK293 cells assessed as reduction in cell viability incubated for 48 hrs by sulphorhodamine B assay; format: functional
Calf thymus DNA [31] = experiment: Binding affinity to calf thymus DNA assessed as DNA intercalation by measuring positive CD band at 20*10^-6 mol/L by CD spectroscopy; format: nucleic-acid assay; conditions: Bos taurus
HCT-116 [32] = experiment: Induction of cell cycle arrest in human HCT-116 cells at 5 uM incubated for 20 hrs by propidium iodide staining based flow cytometry analysis; format: functional
NCI-H460 [33] = experiment: Anticlonogenic activity against human NCI-H460 cells assessed as inhibition of colony formation at 5 uM incubated for 48 hrs followed by compound washout with PBS and measured after 14 days by crystal violet staining based analysis; format: functional, cell-based
Calf thymus DNA [34] = experiment: Binding affinity to calf thymus DNA assessed as DNA intercalation by measuring positive CD band at 26.6*10^-6 mol/L by CD spectroscopy; format: nucleic-acid assay; conditions: Bos taurus
HCT-116 [35] = experiment: Induction of cell cycle arrest in human HCT-116 cells assessed as accumulation of cells at G2/M phase at 5 uM incubated for 48 hrs by propidium iodide staining based flow cytometry analysis; format: functional

T1 sequence (P11388 whole entry, the tested form may be a part): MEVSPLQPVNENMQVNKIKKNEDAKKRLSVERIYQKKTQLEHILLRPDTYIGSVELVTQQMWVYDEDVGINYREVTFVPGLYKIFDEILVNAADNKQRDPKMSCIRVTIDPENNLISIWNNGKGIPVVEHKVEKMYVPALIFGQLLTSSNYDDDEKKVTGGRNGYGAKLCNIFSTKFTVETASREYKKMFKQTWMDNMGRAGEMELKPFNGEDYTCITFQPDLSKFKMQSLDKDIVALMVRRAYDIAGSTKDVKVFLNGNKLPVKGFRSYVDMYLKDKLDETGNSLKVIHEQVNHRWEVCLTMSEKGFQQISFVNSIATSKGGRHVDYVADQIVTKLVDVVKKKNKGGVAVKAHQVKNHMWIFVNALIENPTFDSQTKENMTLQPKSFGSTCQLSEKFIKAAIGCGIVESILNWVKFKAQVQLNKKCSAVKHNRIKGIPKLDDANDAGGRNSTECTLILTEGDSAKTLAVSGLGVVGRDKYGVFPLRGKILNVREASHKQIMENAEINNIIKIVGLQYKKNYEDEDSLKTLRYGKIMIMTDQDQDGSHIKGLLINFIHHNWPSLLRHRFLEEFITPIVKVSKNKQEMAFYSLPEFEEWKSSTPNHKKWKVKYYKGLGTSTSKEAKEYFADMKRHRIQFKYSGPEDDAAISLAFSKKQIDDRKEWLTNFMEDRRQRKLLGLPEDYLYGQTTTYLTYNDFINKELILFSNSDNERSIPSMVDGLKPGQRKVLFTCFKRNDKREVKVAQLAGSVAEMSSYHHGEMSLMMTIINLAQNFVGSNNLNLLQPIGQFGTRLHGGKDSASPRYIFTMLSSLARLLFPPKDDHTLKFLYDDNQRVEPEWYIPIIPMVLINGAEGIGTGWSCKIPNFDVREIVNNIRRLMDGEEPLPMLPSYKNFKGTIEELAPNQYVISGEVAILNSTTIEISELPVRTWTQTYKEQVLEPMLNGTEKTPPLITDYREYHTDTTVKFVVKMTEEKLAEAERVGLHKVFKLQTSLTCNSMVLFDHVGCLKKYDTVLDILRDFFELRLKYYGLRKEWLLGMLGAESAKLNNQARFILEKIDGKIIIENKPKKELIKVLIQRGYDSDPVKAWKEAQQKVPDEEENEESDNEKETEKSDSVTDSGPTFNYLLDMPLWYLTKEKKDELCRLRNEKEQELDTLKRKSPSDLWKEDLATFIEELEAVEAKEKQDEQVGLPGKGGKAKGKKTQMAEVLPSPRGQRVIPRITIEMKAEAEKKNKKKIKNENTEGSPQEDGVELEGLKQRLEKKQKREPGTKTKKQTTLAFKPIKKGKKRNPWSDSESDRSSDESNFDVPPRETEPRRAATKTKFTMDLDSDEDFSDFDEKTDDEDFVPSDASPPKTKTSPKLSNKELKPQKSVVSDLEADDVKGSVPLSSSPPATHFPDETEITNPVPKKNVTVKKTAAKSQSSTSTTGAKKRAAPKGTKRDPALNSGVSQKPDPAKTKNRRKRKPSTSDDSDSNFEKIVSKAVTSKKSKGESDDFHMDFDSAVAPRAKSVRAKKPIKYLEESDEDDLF

Activity (Calf thymus DNA [1]): 13%
logP (physchem [2]): 1.32
GI50 (NCI-H460 [6]): 220 nM
logD (physchem [7]): 1.02
inhibition [8]: Active
GI50 (MCF7): 30 nM
GI50 (MDA-MB-231): 40 nM
Activity (Calf thymus DNA [11]): 10 nm
GI50 (U-251): 80 nM
Activity (Calf thymus DNA [12]): 12%
GI50 (HeLa [13]): 80 nM
GI50 (HCT-116 [15]): 110 nM
GI50 (Jurkat): 70 nM
Activity (Calf thymus DNA [16]): 13%
GI50 (HCT-116 [19]): 80 nM
inhibition [21]: inactive
SMILES: O=C1c2c[n+]([O-])c3ccccc3c2C(=O)c2[nH]c3ccccc3c21 [CALOTHRIXIN A]
GI50 (SiHa): 50 nM
Activity (HCT-116 [3]): Active
Activity (NCI-H460 [4]): Active
Activity (HCT-116 [5]): Active
Activity (NCI-H460 [9]): Active
Activity (HeLa [10]): Tde
Activity (HCT-116 [14]): Active
Activity (HCT-116 [17]): Active
Activity (NCI-H460 [18]): Active
Activity (HCT-116 [20]): Active
Activity (HCT-116 [22]): Active

inhibition [23]: Active
inhibition [24]: 97%
Activity (Calf thymus DNA [25]): 30%
logP (physchem [2]): -1.25
GI50 (A549): > 4000 nM
GI50 (NCI-H460 [6]): 5500 nM
Activity [27]: Dose-dependent effect
logD (physchem [7]): -1.55
inhibition [8]: 100%
GI50 (MCF7): > 4000 nM
GI50 (MDA-MB-231): > 4000 nM
GI50 (U-251): > 4000 nM
GI50 (HeLa [13]): 410 nM
GI50 (HCT-116 [15]): 11500 nM
GI50 (Jurkat): 4000 nM
IC50 [30]: 23400 nM
IC90 [30]: 41500 nM
inhibition [30]: Dose-dependent effect
Activity (Calf thymus DNA [31]): Active
Activity (Calf thymus DNA [34]): Active
SMILES: c1ccc2c(c1)ncc1cc3c(cc12)[nH]c1ccccc13
GI50 (SiHa): > 4000 nM
inhibition (HCT-116 [26]): inactive
Activity (NCI-H460 [28]): inactive
Activity (HCT-116 [29]): inactive
GI50 (HEK293): > 4000 nM
Activity (HCT-116 [32]): inactive
inhibition (NCI-H460 [33]): inactive
Activity (HCT-116 [35]): inactive
